# Data from ChEMBL document CHEMBL2095176, “GSK Tuberculosis Screening Data”.
# System: Mycobacterium tuberculosis variant bovis BCG
# Test: microbe, parasite or virus in culture
# Format: functional
row,Compound,MIC90 [µM]
1,CCN(CC)c1ccc(-c2nn3c(-c4n[nH]c5c4CCC5)nnc3s2)cc1,7
2,Nc1ccc(C(=O)C(=O)c2ccc(N)cc2)cc1,0.4
3,CNc1nc(SC)nc2ccccc12,0.3
4,COc1ccc(Nc2ccccc2N)cc1,1.1
5,CCCCCNc1nc(N2CCCC2)c2c(c1C#N)CCN(C)C2,1.6
6,O=C(Nc1nnc(-c2ccc(Br)cc2)o1)c1cccc(C(F)(F)F)c1,1.5
7,CC(C)Sc1ccc(C(=O)Nc2nc(-c3ccccn3)cs2)cc1,1.2
8,COc1ccc(-c2cncc(-c3cc(N4CCN(CCO)CC4)nc(-c4ccccc4)n3)c2)cc1,7.9
9,COc1ccc(CCNC(=O)c2nc(-c3ccc(OC)c(OC)c3)no2)cc1OC,1.5
10,CN(C)c1nc2scc(-c3ccccc3)c2c(=O)o1,1.5
11,Clc1ccc(CCNc2cc(-c3ccccc3)nc3ncnn23)cc1,4
12,CCOC(=O)CC[C@H](NC(=O)c1ccc(S(=O)(=O)Nc2ccc3nc(N)[nH]c(=O)c3c2)cc1)C(=O)OCC,2.4
13,CCCCOc1ccc(C(=O)Nc2nc(-c3ccccn3)cs2)cc1,1.6
14,CC(c1nc2ccccc2s1)N(C)C(=O)c1ccc2c(c1)CC(c1ccccc1)OC2=O (stereo not given),1.6
15,COc1ccc(-c2ccc(Nc3cccc(S(=O)(=O)CCNC4CCC4)c3)nc2)cn1,1.6
16,Cc1ccc(C)c(-c2nnc(NC(=O)c3ccc(Br)s3)o2)c1,1.6
17,CC(=O)Nc1cc(C(=O)Nc2ccc(C3=NCCN3)cc2)ccc1C(=O)Nc1ccc(C2=NCCN2)cc1,1.6
18,CC(Sc1nc2ccccc2[nH]1)C(=O)NNC(=O)c1ccncc1 (stereo not given),1.6
19,Cl.Cl.O=C(Nc1ccc(NC2=NCCN2)cc1)c1ccc(C(=O)Nc2ccc(NC3=NCCN3)cc2)cc1,0.4
20,COc1ccc(-c2nsc(SCC(=O)N3CCCC3)n2)cc1,5.6
21,CN(Cc1nc2ccccc2s1)C(=O)c1cccc(NC(=O)c2ccncc2)c1,1.7
22,Cc1cc(C)c2cc(CN(Cc3cccnc3)C(=O)c3ccccc3F)c(Cl)nc2c1,1.7
23,CC(C)(C)c1ccc(-c2nnc(SCC(=O)OC3CCCCC3)o2)cc1,8.1
24,O=C(O)C(F)(F)F.c1ccc(C[C@H]2CN(c3nccc(Oc4ccc(-n5ccnc5)cc4)n3)CCN2)cc1,8.2
25,O=C(Nc1nc(-c2ccccn2)cs1)c1ccno1,1.8
26,COc1ccc(O)c(C(=O)c2cnn(C(=O)c3cccs3)c2)c1,1.8
27,FC(F)(F)c1ccc2c(N3CCCNCC3)ncc(-c3ccsc3)c2n1,1.8
28,N#Cc1nc(-c2ccc(F)cc2)oc1S(=O)(=O)c1ccc(Br)cc1,1.8

row,Compound,MIC90 [µM]
1,Cc1cc(NC(=O)c2cccs2)n(-c2nc(C)c(C)c(=O)[nH]2)n1,1.8
2,Cc1n[nH]c(C)c1S(=O)(=O)NCc1nc(NCCCc2ccccc2)c2ccccc2n1,5.9
3,O=C(Nc1ccc(C(=O)N2CCCCC2c2nc3ccccc3s2)cc1)c1ccco1 (stereo not given),0.1
4,O=C(Nc1cccc(C(=O)N2CCCCC2c2nc3ccccc3s2)c1)c1cccs1 (stereo not given),0.1
5,O=C(Nc1ccccc1-c1nc(Cl)cs1)OCCC1CCCCN1 (stereo not given),0.2
6,O=C(NCc1ccc(Oc2ccccc2)cc1)c1c(C(F)(F)F)nc2ccccn12,0.2
7,Cc1ccc2nc(C)c(C(=O)NCc3cccs3)n2c1,0.5
8,Nc1cccnc1Nc1ccc(Cl)cc1,1.1
9,CC(c1nc2ccccc2s1)N(C)C(=O)c1cccc(NC(=O)c2cccs2)c1 (stereo not given),0.3
10,CCC(C)CC(=O)Nc1nc2c(s1)C(=O)CC(C(=O)N(C)Cc1cccc3ncccc13)C2 (stereo not given),0.3
11,COc1ccc2nc(C)cc(OCC(=O)Nc3cc(C)cc(C)c3)c2c1,0.5
12,O=C(C=Cc1cccs1)N1CCN(Cc2ccc3c(c2)OCO3)CC1,1.7
13,Cc1cccc(-c2nc(Nc3ccncn3)c3c(C)csc3n2)n1,0.3
14,Nc1nc2cc(-c3cncc(Oc4ccc(F)cc4)c3)ccc2[nH]1.O=C(O)C(F)(F)F.O=C(O)C(F)(F)F,6.2
15,COc1ccc(S(=O)(=O)N(C)C)cc1C(=O)N[C@H]1CCN2CC(c3ccccc3)C[C@H]2C1 (stereo not given in full),0.4
16,COCc1nc(N2CCCNCC2)c2c(C)nn(-c3cccc(Cl)c3)c2n1,0.4
17,COc1ccccc1NC(=O)CN(Cc1ccco1)C(=O)c1cccc(NC(=O)c2cccs2)c1,0.4
18,Cc1cc(Cl)cc(C(=O)c2c(C(C)C)c(=O)[nH]c(=O)n2Cc2cc(F)nc(F)c2)c1,0.4
19,Cc1nc2ccccn2c1C(=O)NCc1ccc(Cl)cc1,2
20,COc1ccc2nc(C)cc(OCC(=O)Nc3ccccc3OC)c2c1,1.4
21,Cc1cc(/C=C/c2cccc(C(=O)O)c2)cc(Cl)c1OC[C@@H]1CCCN1C,9.5
22,Nc1nonc1-c1nc2c(-c3ccccc3)nccc2n1C1CCNCC1,0.5
23,Cc1nc(-c2cccc(C(F)(F)F)c2)nc(N2CCNCC2)c1C,0.5
24,Nc1ccccc1Nc1ccc2c(c1)OCO2,1.7
25,CC(C)Cc1cn(-c2nc(CN3CCCC3)cs2)c2cc(Cl)ccc12,1.9
26,CC(=O)Nc1ccc(S(=O)(=O)Nc2ccccc2Nc2ccc(C)cc2)cc1,1.9
27,COCc1nc(N2CCNCC2)c2c(C)nn(-c3cccc(Cl)c3)c2n1,1.9
